Laboratory results: patent US8343515B2, “Perfluorocarbon gel formulations” (Oxygen Biotherapeutics, Inc., priority 2008, dated 2013)
Where two headings read alike, the source gives them in different places.

Experiments:
[1] = Physical properties of perfluoro(tert-butylcyclohexane); assay type: physicochemical
Source text: Physical properties of perfluoro(tert-butylcyclohexane) are as follows: […]

[2] = Gas solubility / Henry's Law sorption of oxygen and CO2 in the liquid; assay type: physicochemical
Procedure: The amount of dissolved oxygen in the liquid is measured after equilibration with a gas. The partial pressure of the gas (here, oxygen) is varied. The partial pressure of oxygen in air is 0.21 atm.
The amount of oxygen dissolved in each when the liquids are at equilibrium with the oxygen in the air can be found from the Henry's Law sorption isotherms for the liquids sketched in FIG. 2.
When the solubility of a gas in a liquid is measured, the solubility is nearly always a linear function of the partial pressure of the gas.

[3] = Water solubility and lipophilicity (descriptive); assay type: physicochemical
[4] = tested on: skin tissue; test: Measuring oxygen tension in tissue with fluorescent marker (Example 4); assay type: in vivo; settings: fluorescent marker injected into skin area treated with PFC or PFC gel
Procedure: A material which binds oxygen (fluorescent marker) is injected into skin tissue. The combination is fluorescent and the more oxygen that is present, the stronger the fluorescent signal. (representing the oxygen tension in the tissue). First it is determined that fluorescence chemistry is unaffected by the PFCs and poloxamers. Then as a control, the fluorescent marker is injected into the skin, and oxygen tension is obtained. Finally, the same area is treated with a PFC or a PFC gel and oxygen tension is again obtained.

[5] = 25° C.; cited from earlier work
[6] = used for conversion to weight basis

Kinematic Viscosity (cP) [1] [cP] | density [1] [g/L] | Vapor Pressure (mmHg) @ 25° C. ([1]; 25° C.) [mmHg] | Vapor Pressure (mmHg) @ 37° C. ([1]; 37° C.) [mmHg] | density [1, 6] [g/L] | CO2 carried [2] | oxygen carried [2] | oxygen held in contact with air [2] | lipophilicity [3] | solubility in water [3] | lipophilicity ([3]; at body temperature) | lipophilicity ([3]; at room temperature) | Compound | oxygen tension in tissue [4] | Henry's law constant for oxygen [5]
5.378 | 1970 | 3.8 | 4.4 | 1966 | 196 mL of CO2 per 100 mL of PFC | about 43 mL of oxygen per 100 mL of PFC | about 126 mg O2 | non-lipophilic | non-water soluble | only slightly lipophilic | not lipophilic | FC(F)(F)C(C(F)(F)F)(C(F)(F)F)C1(F)C(F)(F)C(F)(F)C(F)(F)C(F)(F)C1(F)F [perfluoro(tert-butylcyclohexane)] | substantially increases local oxygen tension in the tissue | about 600 mg O2/L/atm
– | – | – | – | – | – | – | – | – | – | – | – | perfluoroisopropyldecalin [APF-200, reference compound] | substantially increases local oxygen tension in the tissue | –
– | – | – | – | 1000 | – | – | – | – | – | – | – | water | – | about 8.3 mg O2/L/atm
